# Assay results as given in PubChem BioAssay (NCI).
#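 Values below derive from 48-hour exposures of cells grown in 96-well plates, with endpoints linearly interpolated between the two concentrations bracketing the appropriate inhibition level. At the TGI there is no net growth.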
# Columns and labels:
# Test in all cases: growth of human tumour cells (NCI), 48 h
# NCI/ADR-RES ovarian = tested on: NCI/ADR-RES ovarian
# IGROV1 ovarian = tested on: IGROV1 ovarian
# MDA-MB-231 breast = tested on: MDA-MB-231 breast
# HOP-62 NSCLC = tested on: HOP-62 NSCLC
# DU-145 prostate = tested on: DU-145 prostate
# HCT-116 colon = tested on: HCT-116 colon
# NCI-H23 lung = tested on: NCI-H23 lung
# MDA-N = tested on: MDA-N
# HCC-2998 colon = tested on: HCC-2998 colon
# ACHN renal = tested on: ACHN renal
# M14 melanoma = tested on: M14 melanoma
# CAKI-1 renal = tested on: CAKI-1 renal
# HL-60(TB) leukemia = tested on: HL-60(TB) leukemia
# OVCAR-8 ovarian = tested on: OVCAR-8 ovarian
# TK-10 renal = tested on: TK-10 renal
# PC-3 prostate = tested on: PC-3 prostate
# HCT-15 colon = tested on: HCT-15 colon
# LOX IMVI melanoma = tested on: LOX IMVI melanoma
# SF-539 CNS = tested on: SF-539 CNS
# SK-OV-3 ovarian = tested on: SK-OV-3 ovarian
# SK-MEL-28 melanoma = tested on: SK-MEL-28 melanoma
# HT29 colon = tested on: HT29 colon
# SW-620 colon = tested on: SW-620 colon
# 786-0 renal = tested on: 786-0 renal
# MOLT-4 leukemia = tested on: MOLT-4 leukemia
# SNB-19 CNS = tested on: SNB-19 CNS
# NCI-H460 lung = tested on: NCI-H460 lung
# OVCAR-5 ovarian = tested on: OVCAR-5 ovarian
# SF-295 CNS = tested on: SF-295 CNS
# UACC-257 melanoma = tested on: UACC-257 melanoma
# U251 CNS = tested on: U251 CNS
# UO-31 renal = tested on: UO-31 renal
# EKVX NSCLC = tested on: EKVX NSCLC
# SK-MEL-5 melanoma = tested on: SK-MEL-5 melanoma
# UACC-62 melanoma = tested on: UACC-62 melanoma
# HOP-92 NSCLC = tested on: HOP-92 NSCLC
# NCI-H226 lung = tested on: NCI-H226 lung
# COLO 205 colon = tested on: COLO 205 colon
# A549 NSCLC = tested on: A549 NSCLC
# MDA-MB-435 = tested on: MDA-MB-435
# SK-MEL-2 melanoma = tested on: SK-MEL-2 melanoma
# OVCAR-3 ovarian = tested on: OVCAR-3 ovarian
# SNB-75 CNS = tested on: SNB-75 CNS
# T-47D breast = tested on: T-47D breast
# KM12 colon = tested on: KM12 colon
# BT-549 breast = tested on: BT-549 breast
# MCF7 breast = tested on: MCF7 breast
# SN12C renal = tested on: SN12C renal
# MALME-3M melanoma = tested on: MALME-3M melanoma
# RPMI-8226 leukemia = tested on: RPMI-8226 leukemia
# RXF 393 renal = tested on: RXF 393 renal
# SR leukemia = tested on: SR leukemia
# SF-268 CNS = tested on: SF-268 CNS
# OVCAR-4 ovarian = tested on: OVCAR-4 ovarian
# K-562 leukemia = tested on: K-562 leukemia
# A498 renal = tested on: A498 renal
# CCRF-CEM leukemia = tested on: CCRF-CEM leukemia
# NCI-H522 lung = tested on: NCI-H522 lung
structure (smiles),measurement,setting,value
CC(=O)C1C(=O)C(=O)N(c2ccc(Cl)c(Cl)c2)C1=O (stereo not drawn),TGI,NCI/ADR-RES ovarian,> 100 µM
same,TGI,IGROV1 ovarian,> 100 µM
same,TGI,MDA-MB-231 breast,> 100 µM
same,TGI,HOP-62 NSCLC,> 100 µM
same,TGI,DU-145 prostate,> 100 µM
same,TGI,HCT-116 colon,> 100 µM
same,TGI,NCI-H23 lung,> 100 µM
same,TGI,MDA-N,> 100 µM
same,TGI,HCC-2998 colon,> 100 µM
same,TGI,ACHN renal,> 100 µM
same,TGI,M14 melanoma,> 100 µM
same,TGI,CAKI-1 renal,> 100 µM
same,TGI,HL-60(TB) leukemia,> 100 µM
same,TGI,OVCAR-8 ovarian,> 100 µM
same,TGI,TK-10 renal,> 100 µM
same,TGI,PC-3 prostate,> 100 µM
same,TGI,HCT-15 colon,> 100 µM
same,TGI,LOX IMVI melanoma,> 100 µM
same,TGI,SF-539 CNS,> 100 µM
same,TGI,SK-OV-3 ovarian,> 100 µM
same,TGI,SK-MEL-28 melanoma,> 100 µM
same,TGI,HT29 colon,> 100 µM
same,TGI,SW-620 colon,> 100 µM
same,TGI,786-0 renal,> 100 µM
same,TGI,MOLT-4 leukemia,> 100 µM
same,TGI,SNB-19 CNS,> 100 µM
same,TGI,NCI-H460 lung,> 100 µM
same,TGI,OVCAR-5 ovarian,> 100 µM
same,TGI,SF-295 CNS,> 100 µM
same,TGI,UACC-257 melanoma,> 100 µM
same,TGI,U251 CNS,> 100 µM
same,TGI,UO-31 renal,> 100 µM
same,TGI,EKVX NSCLC,> 100 µM
same,TGI,SK-MEL-5 melanoma,> 100 µM
same,TGI,UACC-62 melanoma,> 100 µM
same,TGI,HOP-92 NSCLC,> 100 µM
same,TGI,NCI-H226 lung,> 100 µM
same,TGI,COLO 205 colon,> 100 µM
same,TGI,A549 NSCLC,> 100 µM
same,TGI,MDA-MB-435,> 100 µM
same,TGI,SK-MEL-2 melanoma,> 100 µM
same,TGI,OVCAR-3 ovarian,> 100 µM
same,TGI,SNB-75 CNS,> 100 µM
same,TGI,T-47D breast,> 100 µM
same,TGI,KM12 colon,> 100 µM
same,TGI,BT-549 breast,> 100 µM
same,TGI,MCF7 breast,> 100 µM
same,TGI,SN12C renal,> 100 µM
O=c1c2ccc(Cl)cc2oc2c(CNc3ccc(S(=O)(=O)Nc4nccs4)cc3)cccc12,TGI,NCI/ADR-RES ovarian,> 100 µM
same,TGI,IGROV1 ovarian,> 100 µM
same,TGI,MDA-MB-231 breast,> 100 µM
same,TGI,HOP-62 NSCLC,> 100 µM
same,TGI,DU-145 prostate,> 100 µM
same,TGI,HCT-116 colon,> 100 µM
same,TGI,NCI-H23 lung,> 100 µM
same,TGI,MDA-N,> 100 µM
same,TGI,HCC-2998 colon,> 100 µM
same,TGI,MALME-3M melanoma,> 100 µM
same,TGI,ACHN renal,> 100 µM
same,TGI,M14 melanoma,> 100 µM
same,TGI,RPMI-8226 leukemia,> 100 µM
same,TGI,CAKI-1 renal,5.51 µM
same,TGI,OVCAR-8 ovarian,> 100 µM
same,TGI,TK-10 renal,> 100 µM
same,TGI,PC-3 prostate,> 100 µM
same,TGI,HCT-15 colon,> 100 µM
same,TGI,LOX IMVI melanoma,> 100 µM
same,TGI,RXF 393 renal,> 100 µM
same,TGI,SR leukemia,> 100 µM
same,TGI,SF-539 CNS,> 100 µM
same,TGI,SK-OV-3 ovarian,> 100 µM
same,TGI,SK-MEL-28 melanoma,> 100 µM
same,TGI,SF-268 CNS,> 100 µM
same,TGI,HT29 colon,> 100 µM
same,TGI,SW-620 colon,> 100 µM
same,TGI,786-0 renal,> 100 µM
same,TGI,OVCAR-4 ovarian,> 100 µM
same,TGI,MOLT-4 leukemia,> 100 µM
same,TGI,SNB-19 CNS,> 100 µM
same,TGI,OVCAR-5 ovarian,> 100 µM
same,TGI,SF-295 CNS,> 100 µM
same,TGI,UACC-257 melanoma,> 100 µM
same,TGI,U251 CNS,> 100 µM
same,TGI,UO-31 renal,> 100 µM
same,TGI,EKVX NSCLC,> 100 µM
same,TGI,SK-MEL-5 melanoma,> 100 µM
same,TGI,K-562 leukemia,> 100 µM
same,TGI,UACC-62 melanoma,> 100 µM
same,TGI,A498 renal,> 100 µM
same,TGI,HOP-92 NSCLC,> 100 µM
same,TGI,CCRF-CEM leukemia,> 100 µM
same,TGI,NCI-H226 lung,> 100 µM
same,TGI,COLO 205 colon,> 100 µM
same,TGI,A549 NSCLC,> 100 µM
same,TGI,MDA-MB-435,> 100 µM
same,TGI,SK-MEL-2 melanoma,> 100 µM
same,TGI,NCI-H522 lung,> 100 µM
same,TGI,OVCAR-3 ovarian,> 100 µM
same,TGI,T-47D breast,> 100 µM
same,TGI,KM12 colon,> 100 µM
same,TGI,BT-549 breast,> 100 µM
same,TGI,MCF7 breast,> 100 µM
same,TGI,SN12C renal,> 100 µM
